From patent US12082597B2, “Supplemented fish feed” (CAN TECHNOLOGIES, INC., priority 2013, dated 2024)
Like-named read-outs stand apart in the source and are kept apart here.

Experiments:
DT50 in sea water = type: physicochemical; conditions: 16° C.; Not GLP/GEP
[1] = cited from earlier work
[2] = 20° C.; cited from earlier work
[3] = Half-life in fish-farm sediment (Skye); type: physicochemical; conditions: Not GLP/GEP
Description: In common with most plant-derived biocides, the azadirachtin terpenoids have a short half-life in the environment. They hydrolyse in water, and their disappearance is faster the more alkaline the water. For example, at pH 7.0 and 20° C. the half-life of azadirachtin terpenoids is 19.5 days, and at pH 8.0 it is 4.4 days. As seawater is slightly alkaline, (pH 7.5-8.4) any dissolved azadirachtin terpenoids will have largely disappeared within a week. Azadirachtin is rapidly catabolized by the microflora in soil. […] Preliminary studies with some sediment from below cages in Skye (Scotland) and subsequently infused with NeemAzal® in the laboratory have indicated a half-life of 3 weeks for NeemAzal® Technical added to the sediment and incubated at 15° C. Unchanged excreted material will be infinitely diluted in the water and hydrolyzed within days into small fragments without biological activity.

C/C=C(\C)C(=O)O[C@H]1C[C@@H](OC(C)=O)[C@@]2(C(=O)OC)CO[C@H]3[C@@H](O)[C@@](C)([C@]45O[C@@]4(C)[C@H]4C[C@@H]5O[C@@H]5OC=C[C@@]54O)[C@H]4[C@]1(CO[C@]4(O)C(=O)OC)[C@@H]32 (relative stereo) [Azadirachtin A, dimethyl [2aR-[2aα,3β,4β(1aR*,2S*,3aS*,6aS*,7S*,7aS*),4aβ,5α,7aS*,8β(E),10β,10aα,10bβ]]-10-(acetyloxy)octahydro-3,5-dihydroxy-4-methyl-8-[(2-methyl-1-oxo-2-butenyl)oxy]-4-(3a,6a,7,7a)-tetrahydro-6a-hydroxy-7a-methyl-2,7-methanofuro[2,3-b]oxireno[e]oxepin-1a(2H)-yl)-1H,7H-naphtho-[1,8-bc:4,4a-c′]difuran-5,10a(8H)-dicarboxylate]
DT50 in sea water (DT50 in sea water): 8 days | DT50 in fresh water ([1]; pH 4.0): 50 days | DT50 in fresh water ([1]; pH 7.0): 19 days | DT50 in fresh water ([1]; pH 8.0): 4 days | DT50 in field soil [2]: 4 to 5 days | DT50 in fish-farm sediment (Skye) [3]: 3 weeks
